# Results from patent US7276337B2, “Compositions and methods for visual ribonuclease detection assays” (Integrated DNA Technologies, Inc., priority 2000, dated 2007).
# Assays:
# RNase 1 = RNase 1 (Escherichia coli, UniProt P21338); assay: Fluorometric detection nuclease assay, RNase 1; format: biochemical, E. coli; conditions: Substrate 50 nM, 37° C. 1 hour
# Description: Nuclease assays were conducted using the method of the invention. The Substrate (SEQ ID NO:30) was mixed in 1× Assay Buffer at a concentration of 50 nM (150 pmoles oligonucleotide in 3 mls volume). Test nucleases were added to respective Assay Mixes, including 1 ul of RNase A (1 ug), 1 ul of RNase 1 (100 units), or 1 ul of RNase T1 (1000 units). […] Assays were set up directly in cuvettes as follows:
# Assay Mixes were incubated at 37° C. for 1 hour. Assays were transferred to cuvettes and fluorescence emission at 520 nm was measured using a PTI fluorometer with 490 nm excitation. Substrate SEQ ID NO:30, a preferred Substrate of the invention, reacted with (i.e., detected) all three RNase enzymes, verifying that Substrate compositions of the invention are sensitive to a variety of RNase enzymes.
# Assays were conducted using the method of the invention with fluorometric detection. Substrate SEQ ID NO:30 was mixed in 1× Assay Buffer at a concentration of 50 nM (50 pmoles ODN in 1.0 ml volume) in RNase-free disposable cuvettes. […] Dilutions of stock RNase A, RNase 1, and RNase T1 were made in water. […] Assays were incubated at 37° C. for 1 hour and examined for fluorescence emission at 520 nm using 490 nm excitation in a PTI fluorometer. […]
# Ribonuclease A = target: T1, Ribonuclease A (Bos taurus, UniProt P61823); assay: Visual detection ribonuclease assay, cleavage of Substrate ODN by RNase A; format: biochemical, mammalian; design: key to Sensitivity of Substrate ODN to Ribonuclease A, relative signal intensity: +++ = maximum intensity; ++ = moderate intensity; + = faint but above background; − = negative (identical to background); conditions: Substrate 500 nM; for Sensitivity of Substrate ODN to Ribonuclease A, relative signal intensity: visual inspection, UV excitation, 37° C. 60 minutes
# T1 sequence (P61823 27-150): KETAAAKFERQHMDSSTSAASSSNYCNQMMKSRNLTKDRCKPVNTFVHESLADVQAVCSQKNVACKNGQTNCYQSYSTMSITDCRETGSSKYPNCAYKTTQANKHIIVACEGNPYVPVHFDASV
# Procedure, shortened: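 Fluorogenic substrate oligonucleotides (500 nM for visual, 50 nM for fluorometric read) cut by serially diluted RNase A, 10 min at room temperature or 60 min at 37° C. Cleavage judged by fluorescence under UV excitation, scored +++ to − by relative intensity.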
# [1] = Ribonuclease assay on an environmental sample (tapwater), visual detection; format: biochemical; conditions: with Assay Buffer, Substrate 500 nM, room temperature 10 minutes
# Description: Nuclease assays were conducted using the method of the invention. Dilutions of the test sample (tapwater) were made in nuclease-free water both with and without the addition of Assay Buffer. Samples were tested having 100%, 50%, 25%, 10%, 5%, and 1% tapwater. Assay Mixes contained test sample (diluted or undiluted tapwater) and Substrate (SEQ ID NO:30) at a concentration of 500 nM (50 pmoles ODN in 100 ul volume). Control Assay Mixes were in nuclease-free water without added tapwater. Duplicate Assays were performed with and without 1× Assay Buffer. Assay Mixes were incubated at room temperature for 10 minutes. Reactions were visually examined for fluorescence emission in the assay tubes without further manipulation. Tubes were suspended above an ultraviolet light source, visually inspected, and photographed using a digital camera. […] The test samples (with tapwater) emitted fluorescent signal. With Assay Buffer, tapwater was detectable when diluted to as little as 10 parts-per-thousand (1%). Without Assay Buffer, the assay was less sensitive and fluorescent emission was less intense. Addition of Buffer thus led to improved assay sensitivity.
# RNase 1, sequence (P21338 24-268): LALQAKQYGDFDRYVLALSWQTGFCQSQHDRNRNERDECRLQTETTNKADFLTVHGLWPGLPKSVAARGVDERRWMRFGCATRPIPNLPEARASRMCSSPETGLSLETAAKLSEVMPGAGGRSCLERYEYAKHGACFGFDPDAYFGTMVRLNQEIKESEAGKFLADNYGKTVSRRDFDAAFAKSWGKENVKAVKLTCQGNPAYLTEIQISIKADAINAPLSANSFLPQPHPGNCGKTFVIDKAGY
substance,measurement,setting,value
"5′ Fluorescein-AauggcA-QSY-7 3′ (NAAUGGCAN; 5' fluorescein and 3' QSY-7 labels, nucleotide chemistry not given here) [SEQ ID NO:30]",Reactivity with RNase 1 (fluorometer),"RNase 1; RNase 1 33 units/ml, emission 520 nm, 490 nm excitation",reacted
same,"Enzyme Concentration, lowest tested reproducibly positive with signal:noise at least 2:1, RNase 1","RNase 1; fluorometric detection, dilution factor 10^−7",0.00001 units/ml
same,"Sensitivity of Substrate ODN to Ribonuclease A, relative signal intensity",Ribonuclease A; RNase A 10 pg/ml,++
same,"Sensitivity of Substrate ODN to Ribonuclease A, relative signal intensity",Ribonuclease A; RNase A 100 pg/ml,+++
same,"Sensitivity of Substrate ODN to Ribonuclease A, relative signal intensity",Ribonuclease A; RNase A 1 ng/ml,+++
same,Fluorescence emission by visual inspection in the presence of RNase,"Ribonuclease A; RNase A 1.0 ug/ml, room temperature 10 minutes, UV light source",visibly bright
same,Detection of RNase A activity by visual examination,"Ribonuclease A; final dilution factors of stock 10^−2 to 10^−7, room temperature 10 minutes",clearly detectable
same,Fluorescence emission by visual inspection in the absence of RNase (control reaction),"Ribonuclease A; no nuclease, room temperature 10 minutes, UV light source",visually transparent (dark)
same,Lowest tapwater concentration detectable,[1],1%
